Patent publication US5446058A, “(Fused) benz(thio)amides” (Ono Pharmaceutical Co., Ltd., priority 1984, dated 1995)

test system: not listed separately; experiment: Acute toxicity (LD50), intravenous, male mice; settings: mouse, in vivo, intravenous administration

SMILES | LD50 [mg/kg]
O=C(Nc1cccc2c1OC(c1nnn[nH]1)CO2)c1ccc(OCCCCc2ccccc2)cc1 (centres unmarked) [1(76)] | > 1000
C=CCCC/C=C/COc1ccc(C(=O)Nc2cccc3c(=O)cc(-c4nn[nH]n4)oc23)cc1 [1(212)] | > 1000
O=C(Nc1cccc2c(=O)cc(-c3nnn[nH]3)oc12)c1ccc(OCCCCc2ccccc2)cc1 [1(230)] | > 1000
C=CCCC/C=C/COc1ccc(C(=O)Nc2cc(C)cc3c(=O)cc(-c4nn[nH]n4)oc23)cc1 [1(247)] | > 1000

test system: LTD4; experiment: Antagonistic activity on LTD4 in vitro (contraction of isolated ilem in a Magnus tube); settings: antagonism of LTD4, guinea pig ilem, 5×10^-9 g/ml LTD4, 37° C.; read-out: IC50 (Table III, comparison of activity by alkylene chain change)
Protocol: Antagonistic activity of the compounds of the present invention on LTD4 were measured by the following method.
A segment of ilem (2.5 cm) was removed from guinea pig 300-400 g and suspended in a Magnus tube containing Tyrodes solution. The tube was maintained at 37° C. and aerated with 95% O2 -5% CO2. After stabilizing from 30 mins, 5×10^-9 g/ml of LTD4 was added to the Magnus tube. Contraction length at the time and contraction lengths when the compounds of the present invention were challenged at some concentrations were measured, and the IC50 value were calculated.

IC50 [nM] | SMILES
8300 | CCCCCc1ccc(CC(=O)Nc2cccc3c2OC(c2nn[nH]n2)CO3)cc1 (centres unmarked)
660 | CCCCCc1ccc(CCC(=O)Nc2cccc3c2OC(c2nn[nH]n2)CO3)cc1 (centres unmarked)
74 | CCCc1ccc(/C=C/C=C/C(=O)Nc2cccc3c2OC(c2nn[nH]n2)CO3)cc1 (centres unmarked)
20000 | CCCCCCCCCCCCC/C=C/C(=O)Nc1cccc2c1OC(c1nn[nH]n1)CO2 (centres unmarked)
2600 | CCCCCc1ccc(C(=O)Nc2cccc3c2OC(c2nn[nH]n2)CO3)cc1 (centres unmarked) [drawing 40]

same assay, conditions: antagonism of LTD4, guinea pig ilem, 5×10^-9 g/ml LTD4, 37° C.; read-out: IC50 (Table IV, comparison of activity by skeleton structure change (1))

IC50 [nM] | SMILES
370 | CCCCCc1ccc(/C=C/C(=O)Nc2cccc3c2OC(c2nn[nH]n2)CO3)cc1 (centres unmarked)
30 | CCCCCc1ccc(/C=C/C(=O)Nc2cccc3c(=O)cc(-c4nn[nH]n4)oc23)cc1
690 | CCCCCc1ccc(/C=C/C(=O)Nc2cccc3c2SC(c2nn[nH]n2)CS3)cc1 (centres unmarked)

same assay, conditions: antagonism of LTD4, guinea pig ilem, 5×10^-9 g/ml LTD4, 37° C.; read-out: IC50 (Table V, comparison of activity by skeleton structure change (2))

IC50 [nM] | SMILES
180 | CCCCCc1ccc(C(=O)Nc2cccc3c(=O)cc(-c4nn[nH]n4)oc23)cc1
1200 | CCCCCc1ccc(C(=O)Nc2cccc3c2OC(C(=O)O)CO3)cc1 (centres unmarked)
2600 | CCCCCc1ccc(C(=O)Nc2cccc3c2OC(c2nn[nH]n2)CO3)cc1 (centres unmarked) [drawing 49]

same assay, conditions: antagonism of LTD4, guinea pig ilem, 5×10^-9 g/ml LTD4, 37° C.; read-out: IC50 (Table VI, comparison of activity by skeleton structure change (3))

IC50 [nM] | SMILES
76 | CCCCCCOc1ccc(C(=O)Nc2cccc3cc(-c4nn[nH]n4)oc23)cc1 [1 (501)]
205 | CCCCCCOc1ccc(C(=O)Nc2cccc3c2OC(c2nn[nH]n2)C3)cc1 (centres unmarked) [1 (505)]
4.6 | O=C(Nc1cccc2ccc(-c3nn[nH]n3)cc12)c1ccc(OCCCCc2ccccc2)cc1 [1 (514)]
2.6 | O=C(Nc1cccc2ccc(-c3nn[nH]n3)nc12)c1ccc(OCCCCc2ccccc2)cc1 [1 (516)]
33 | C=CCCCC=CCOc1ccc(C(=O)Nc2cccc3c2OC(c2nn[nH]n2)CCO3)cc1 (centres unmarked) [1 (518)]
1.3 | O=C(Nc1cccc2c1OC(c1nn[nH]n1)CC2)c1ccc(OCCCCc2ccccc2)cc1 (centres unmarked) [1 (521)]

target: 5α-reductase; experiment: Inhibitory activity on 5α-reductase in vitro; type: biochemical; settings: [4-14C]testosterone 5 μM, NADPH 5×10^-3 M, pH 7.4, 37° C., 60 mins; read-out: IC50, inhibitory activity on 5α-reductase (Table VII)
Protocol: Inhibitory activity of the compounds of the present invention on 5α-reductase was measured by the following method.
Inhibitory activity of the compounds of the present invention on 5α-reductase (IC50) in vitro was measured by the following method.
Compounds tested were incubated with radioactive [4-^14 C]testosterone (5 μM) and NADPH (5×10^-3 M) in the medium containing 5α-reductase, 0.09M Hepes (pH 7.4) and 0.22M sucrose at 37° C. for 60 mins. The reaction was stopped by adding solution of chloroform-methanol (1:2). The reaction mixture was centrifuged and the supernatant was separated by thin layer chromatography on silica gel using chloroform-methanol-acetic acid (99.2:0.6:0.2) as a developing solvent. Radioactivity of formed 5α-dihydrotestosterone was measured by TLC scanner. The values of IC50 were determined by the inhibition percents of 5α-reductase activity measured by the above procedure (see Endocrinal, Japon., 18, 179 (1971).).

IC50 [nM] | SMILES
4000 | CCCCCc1ccc(C(C)=CC(=O)Nc2ccccc2SCCCC(=O)O)cc1 [4(206)]
5000 | CCCCCc1ccc(C=CC(=O)Nc2ccccc2OCCCC(=O)O)cc1 [6(1)]
